Earlier results, collected in US20220249637A1, “COMBINATION THERAPY OF A CELL-MEDIATED CYTOTOXIC THERAPY AND AN INHIBITOR OF A PROSURVIVAL BCL2 FAMILY PROTEIN” (Juno Therapeutics, Inc., priority 2019, published 2022).

Tests used:
[1] = system: CD3+CD4+ and CD3+CD8+ T cells; details: mouse, in vivo; cited from earlier work
CD3+ cells = details: human, in vivo; cited from earlier work

navitoclax
CD3+CD4+ and CD3+CD8+ T cells in the peripheral blood [1]: induced a relative and absolute reduction | average decrease of CD3+ cells (CD3+ cells): 241 cells/μL | decrease in T cells at final visits (CD3+ cells): maintained
